Tested on: mouse ischemic model
Assay: Middle cerebral artery occlusion (MCAO) and reperfusion, TTC staining of brain
Format: in vivo
Conditions: MCAO 90 min, 24 h reperfusion, intravenous reEPO 2000 IU/kg (n = 4)
Source text: The protocol of this experiment was approved by the Animal Care and Use Committee of the Keimyung University School of Medicine. After 1 week of acclimatization, mice were anesthetized with 3% isoflurane in a mixture of 70% N2O and 30% O2, and the anesthesia was maintained with 1.5–2.0% isoflurane. After the neck skin incision, the bifurcation of the common carotid artery was exposed. The external carotid artery was ligated, and the internal carotid artery was carefully isolated from the vagus nerve. A microvascular clip was placed across the right common carotid artery. Through the external carotid stump, a 7–0 surgical nylon monofilament with silicon coat was advanced into the right internal carotid artery up to the origin of the middle cerebral artery. […] During the surgery, rectal temperature was monitored and maintained at 37 ± 0.5 °C with a feedback-controlled heating pad (CMA 150, Stockholm, Sweden). […]
The brain was rapidly dissected out and coronally sliced into 2-mm-thick sections. […] The infarct volumes of the TTC-stained brain sections were imaged with a digital camera and analyzed. Using NIH ImageJ software (NIH, USA), the intensity of TTC in MCAO- and no-MCAO-performed hemispheres were digitally measured, and the ratio (MCAO versus non-MCAO) was presented as a percentage.

## reEPO: Recombinant human EPO (Epoetin-α, CJ HealthCare Corporation)
  TTC staining in MCAO-performed versus contralateral side (brain injury): inhibited extinction of TTC-staining in MCAO-performed side

— paper PMC8715119, “Second-generation non-hematopoietic erythropoietin-derived peptide for neuroprotection” (Redox Biology, 2021)
